Reference: patent US20100331185A1, “Herbicidal Compositions of Lithium Glyphosate and Adjuvants” (COGNIS IP […], priority 2007, published 2010)
Where two headings read alike, the source gives them in different places.

Experiments:
[1] = Method: 35.2 g of glyphosate tech (96%, 0.208 mol) was mixed with 20 g water in a flask. 8.4 g of LiOH monohydrate was added to this mixture with good mixing.
[2] = acid form, in water at 25° C.; cited from earlier work

SMILES | product pH (1%) [1] | Li glyphosate Solubility ([1]; solvent: Agnique KE 3658) | Li glyphosate Solubility ([1]; solvent: Agnique ME 610) | Li glyphosate Solubility ([1]; solvent: Exxsol D-110) | Li glyphosate Solubility ([1]; solvent: N-Methyl pyrrolidone) | Li glyphosate Solubility ([1]; solvent: Water) | solubility in water [2]
O=C(O)CNCP(=O)([O-])O.[Li+] [Li glyphosate, lithium glyphosate] | 4.98 | <100 mg/mL | <50 mg/mL | <50 mg/mL | <150 mg/mL | <200 mg/mL | –
O=C(O)CNCP(=O)(O)O [glyphosate] | – | – | – | – | – | – | 0.16 % by weight
